Test results taken from the supplement of paper PMC10307832.

Legend:
Assay in all cases: relative viability (nuclei count vs DMSO), 5 days (fraction); higher = more cells survive
[1] = compound: CC(C)C[C@H](NC(=O)[C@H](CCc1ccccc1)NC(=O)CN1CCOCC1)C(=O)N[C@@H](Cc1ccccc1)C(=O)N[C@@H](CC(C)C)C(=O)[C@@]1(C)CO1 [Carfilzomib] + N=C(N)NC(=N)NCCc1ccccc1 [Phenformin] (partner 250 µM)
Procedure, shortened: (§1)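 Relative viability divides the nuclei count in treated wells by that in vehicle wells. Lung cancer cell lines were seeded in 1536-well plates, dosed by pin tool the next day, and fixed and stained after 5 days in one step with final 0.05% Triton X-100, 1% formaldehyde and 1 ug/ml Hoechst. Dosing was a single drug or a fixed anchor-drug dose plus five library-drug doses (not always all listed) in √10 steps, and values are medians of duplicate plates imaged at 4×.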

[2] = compound: C[C@@H](Oc1cc(-c2cnn(C3CCNCC3)c2)cnc1N)c1c(Cl)ccc(F)c1Cl [Crizotinib] + CC(C)C[C@H](NC(=O)[C@H](Cc1ccccc1)NC(=O)c1cnccn1)B(O)O [Bortezomib] (partner 0.002 µM)
Procedure, shortened: as §1

[3] = compound: O=C(c1cc(Cc2n[nH]c(=O)c3ccccc23)ccc1F)N1CCN(C(=O)C2CC2)CC1 [Olaparib] + CC(=O)c1c(C)c2cnc(Nc3ccc(N4CCNCC4)cn3)nc2n(C2CCCC2)c1=O [Palbociclib] (partner 0.5 µM)
Procedure, shortened: as §1

[4] = compound: O=C(c1cc(Cc2n[nH]c(=O)c3ccccc23)ccc1F)N1CCN(C(=O)C2CC2)CC1 [Olaparib] + Nc1nc2[nH]cc(CCc3ccc(C(=O)N[C@@H](CCC(=O)O)C(=O)O)cc3)c2c(=O)[nH]1 [Pemetrexed] (partner 0.2 µM)
Procedure, shortened: as §1

Cell Line	relative viability ([1]; first compound 0.001 µM)	relative viability ([1]; first compound 0.003162 µM)	relative viability ([1]; first compound 0.01 µM)	relative viability ([1]; first compound 0.03162 µM)	relative viability ([1]; first compound 0.1 µM)	relative viability ([2]; first compound 0.01 µM)	relative viability ([2]; first compound 0.03162 µM)	relative viability ([2]; first compound 0.3162 µM)	relative viability ([2]; first compound 1 µM)	relative viability ([3]; first compound 0.08 µM)	relative viability ([3]; first compound 0.253 µM)	relative viability ([3]; first compound 2.53 µM)	relative viability ([3]; first compound 8 µM)	relative viability ([4]; first compound 0.08 µM)	relative viability ([4]; first compound 0.253 µM)	relative viability ([4]; first compound 2.53 µM)	relative viability ([4]; first compound 8 µM)	relative viability ([2]; first compound 0.1 µM)
201T	0.404	0.482	0.483	0.464	0.328	1.07	1.09	1.14	1.2	0.392	0.323	0.388	0.337	0.309	0.346	0.298	0.323	
A549	0.0885	0.231	0.113	0.0362	0.0257													
A-427	0.25	0.464	0.381	0.116	0.133	0.91	1.03		0.999	0.512	0.488	0.503	0.415	0.922	0.947	0.87	0.73	0.953
ABC-1	0.235	0.25	0.236	0.229	0.185	0.277	0.368	0.279	0.299	0.814		0.476	0.862					0.292
BEN	0.319	0.318	0.346	0.251	0.182	0.862	0.788	0.815	0.78	0.531	0.454	0.451	0.51	0.725	0.672	0.828	0.895	
CAL-12T	0.61	0.668	0.591	0.101	0.114	0.991	1.02		0.907	0.0401	0.407	0.329	0.479	1.48	1.04	1.16	0.963	1.13
COR-L23	0.442	0.435	0.404	0.0562	0.0638	0.927	0.9	0.989	0.96	0.314	0.241	0.223	0.14	0.221	0.195	0.177	0.21	0.915
COR-L 105	0.572	0.391	0.526	0.261	0.203	0.825	0.778	0.699	0.941	0.401	0.409	0.404	0.398	1.31	1	0.838	0.914	0.787
Calu-6						0.936	0.988	0.892	0.958									1.03
ChaGo-K-1	0.438	0.524	0.501	0.442	0.14	0.947			0.96	1.03	0.908	0.908	0.664	0.266	0.258	0.261	0.256	1.2
EBC-1						0.599	0.564	0.231	0.259									0.28
EKVX	0.204	0.24	0.257	0.114	0.221	1.06	1.05	0.934	1.1	0.38	0.364	0.371	0.41	0.425	0.401	0.418	0.365	0.959
EMC-BAC-2	0.52	0.62	0.572	0.376	0.199	1.04	1.08	1	1.03	0.518	0.512	0.517	0.472	0.473	0.478	0.472	0.491	0.997
EPLC-272H	0.269	0.314	0.307	0.124	0.038	0.87	0.865	0.912		0.427	0.298	0.339	0.318	0.316	0.312	0.345	0.357	1.03
H3255	0.395	0.364	0.441	0.354	0.321	0.736	0.925	0.681	0.659	0.32	0.315	0.336	0.306	0.598	0.58	0.577	0.597	0.814
HARA	0.478	0.506	0.403	0.0435	0.0629	1.02	1.08	1.13	1.12	0.216	0.268	0.271	0.276	0.274	0.251	0.272	0.232	1.11
HCC-15	0.443	0.538	0.48	0.222	0.1	0.916		0.826	0.891	0.785	0.659	0.714	0.722	0.215	0.224	0.209	0.221	1.06
HCC-44	0.169	0.289	0.145	0.107	0.122	0.903	0.751	0.773	0.952	0.998	0.884	0.943	0.969	0.658	0.619	0.716	0.748	0.936
HCC-78	0.539	0.683	0.78	0.668	0.235	0.437	0.466	0.399	0.447	0.414	0.424	0.486	0.464	0.885	0.886	0.906	0.908	0.472
HCC-366	0.622	0.678	0.596	0.565	0.17	1.01	1.04		1.15	0.39	0.263	0.26	0.168	0.165	0.195	0.206	0.271	1.02
